# Source: patent US20230270721A1, “INHIBITION OF BAX-MEDIATED CELL DEATH BY ELTROMBOPAG” (Albert Einstein College of Medicine, priority 2020, published 2023)
# pKd: −log10 of the molar value.
# Columns and labels:
# [1] = test system: megakaryocyte precursors and progenitor cells; conditions: differentiation of megakaryocyte precursors and progenitor cells; cited from earlier work
# BAX = molecular target: T1, BAX (Homo sapiens, UniProt Q07812); experiment: Recombinant BAX TM (Tycho NT.6); type: binding; conditions: 1:10 BAX:EO
# T1 construct: Human full-length (1-192) wild-type BAX (Q07812); made in house; host or cells: E. coli BL21 (DE3) CodonPlus (DE3)-RIPL
# T1 sequence (Q07812 whole entry): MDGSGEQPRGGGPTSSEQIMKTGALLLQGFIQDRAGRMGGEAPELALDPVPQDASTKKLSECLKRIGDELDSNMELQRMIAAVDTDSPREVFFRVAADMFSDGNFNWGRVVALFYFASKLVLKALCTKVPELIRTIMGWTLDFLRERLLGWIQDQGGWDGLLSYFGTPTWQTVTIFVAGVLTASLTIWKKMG
# Procedure: Purified recombinant BAX ([…]) was combined with DMSO or EO (1:10 BAX:EO) and loaded into Tycho NT.6 (NanoTemper Technologies) capillaries. First derivative (330/350 nm) melting point curves were generated automatically using the Tycho NT.6 (NanoTemper Technologies). Data was exported and to GraphPad PRISM software for analysis and visualization.
# To confirm direct engagement of BAX, Cellular Thermal Shift Assay (CETSA) was performed in BAK KO MEFs.
# BAX-4C = molecular target: T2, BAX-4C (Homo sapiens, UniProt Q07812, C126S/C62S/S4C); experiment: Microscale thermophoresis (MST) direct binding; conditions: 50 nM labeled BAX; read-out: dissociation constant KD
# T2 construct: Human full-length (1-192) wild-type BAX (Q07812); made in house; host or cells: E. coli BL21 (DE3) CodonPlus (DE3)-RIPL
# T2 sequence (Q07812 whole entry S4C/C62S/C126S): as the sequence (Q07812 whole entry) above, with S4C, C62S, C126S counted along it
# Procedure: (§1) Recombinant BAX C62S-C126S-S5C (4C), previously established for evaluating BAX (Garner, T.P., et al. Nat Chem Biol 15, 322-330 (2019)) binding compounds with MST, or BAX C62S-C126S-S5C-R134E-R145E (R134E-R145E-4C) was labeled at cysteine using the Monolith Protein Labeling Kit Red Maleimide (NanoTemper Technologies) according to the instructions of the manufacturer (Garner, T.P., et al. Nat Chem Biol 15, 322-330 (2019)). Briefly, 10 µM protein was incubated with 0.9 equivalents of dye in MST buffer (100 mM potassium phosphate, pH 7.4, 150 mM NaCI) in the dark at room temperature (22-25° C.) for 1 hr. […] Samples were loaded into standard glass capillaries (Monolith NT.155 Capillaries) and analyzed by MST using a Monolith NT.115 Blue/Red, LED power and IR laser power of 80%. Fraction bound and error was generated by NanoTemper software (MO.Affinity Analysis), and KD values were determined using GraphPad Prism nonlinear fit four-parameter agonist versus response with restraints for 0 and 1 fraction bound.
# To test this hypothesis, a competitive fluorescence polarization assay (FPA) (Gavathiotis, E., et al. Nat Chem Biol 8, 639-645 (2012)) based on the interaction between BAX and fluorescently-labeled stapled BIM-BH3 peptide (FITC-BIM-SAHB) was used (Gavathiotis, E., et al. Nature 455, 1076-1081 (2008)). […]
# BAX-4C R134E R145E = molecular target: T3, BAX-4C R134E R145E (Homo sapiens, UniProt Q07812, C126S/C62S/R134E/R145E/S4C); experiment: Microscale thermophoresis (MST) direct binding, double mutant; conditions: double mutant versus wild type BAX-4C
# T3 construct: Human full-length (1-192) wild-type BAX (Q07812); made in house; host or cells: E. coli BL21 (DE3) CodonPlus (DE3)-RIPL
# T3 sequence (Q07812 whole entry S4C/C62S/C126S/R134E/R145E): as the sequence (Q07812 whole entry) above, with S4C, C62S, C126S, R134E, R145E counted along it
# Procedure: as §1, with “hr. Unreacted dye was quenched using 5 mM DTT and removed using the manufacturer-provided buffer exchange column.” for “hr.”
# With this known, the EO docking poses were reevaluated, and the top pose featuring an ionic interaction between the EO-carboxylate and sidechain of R145 was analyzed (FIGS. 2E, 2F, and 2G). […]
# BAX-/-MEFs = experiment: Caspase 3/7 assay, STS-induced apoptosis, MEFs expressing only BAK; type: cell-based, mouse; conditions: 3 µM STS, 6 hr
# From the text: FIGS. 7A, 7B, 7C, 7D, 7E, and 7F are a set of diagrams showing that eltrombopag inhibits BAX translocation and BAX-mediated apoptosis in cells. […] BAX translocation is based on antibody-based detection of BAX and mitochondrial protein TOMM20. Representative confocal micrographs from three independent biological experiments. Scale bar, 20 µm. […] Data represent ±SEM of three independent biological replicates. Two-sided t test, ****P < 0.0001; ***P < 0.001; **P < 0.01; *P < 0.05; ns, P > 0.05. […] Actin and VDAC are loading controls for cytosolic and mitochondrial fractions, respectively. FIGS. 7D and 7E show a caspase 3/7 assay of BAK-/- mouse embryonic fibroblasts (MEFs) (FIG. 7D) and BAX-/-MEFs (FIG. 7E) in response to 3 µM STS and the presence or absence of various doses of EO for 6 hr. […]
# It is important to note that THPO-receptor agonist activity of EO is highly specific to the human and chimpanzee THPO-receptors, making mouse cell lines ideal for studying EO modulation of BAX-dependent activity independent of THPO-mediated effects (Erickson-Miller, C. L. et al. Stem Cells 27, 424-430 (2009)). First, mitochondrial cytochrome c release, a hallmark of BAX activation and BAX-dependent apoptosis, was evaluated. […] Next, mitochondrial translocation of cytosolic BAX upon treatment with either BIM BH3 or staurosporine (STS) in BAK KO MEFs was evaluated.
# [2] = test system: human IPSC cardiomyocytes; experiment: Apoptosis detection (RealTime Glo) in doxorubicin-treated cardiomyocytes; type: cell-based; conditions: 5 µM Doxorubicin, 10 µM EO
structure (smiles),measurement,setting,value
"CC1=NN(c2ccc(C)c(C)c2)C(=O)/C1=N\Nc1cccc(-c2cccc(C(=O)O)c2)c1O [EO, eltrombopag]",time for stimulation of platelet production to begin,[1],5 days
same,change in TM of recombinant BAX,BAX,comparable reduction in TM
same,pKd,BAX-4C,6.84
same,affinity as determined by MST,BAX-4C R134E R145E,markedly reduced affinity
same,STS-induced apoptosis mediated by caspase 3/7 activity,BAX-/-MEFs,no effect
same,apoptosis (cell death) induced by doxorubicin,[2],capable of inhibiting apoptosis
